Test results: patent US20080161232A1, “C5a Receptor Antagonist” (JERINI AG, priority 2005, published 2008)
Non-standard residues stand in square brackets, D forms with d. Residues, ends and D or L forms follow the SMILES beside them. ξ: configuration not given here. *: point of attachment. Phe(3,4-Cl2) = N[C@@H](Cc1ccc(Cl)c(Cl)c1)C(=O)O; Phe(F5) = N[C@@H](Cc1c(F)c(F)c(F)c(F)c1F)C(=O)O; Phe(2,4-Cl2) = N[C@@H](Cc1ccc(Cl)cc1Cl)C(=O)O; Phe(2-CF3) = N[C@@H](Cc1ccccc1C(F)(F)F)C(=O)O; Phe(3,4-F2) = N[C@@H](Cc1ccc(F)c(F)c1)C(=O)O; ξTrp(6-F) = NC(Cc1c[nH]c2cc(F)ccc12)C(=O)O; Phe(3-Cl) = N[C@@H](Cc1cccc(Cl)c1)C(=O)O; Phe(4-Cl) = N[C@@H](Cc1ccc(Cl)cc1)C(=O)O; Phe(3-F) = N[C@@H](Cc1cccc(F)c1)C(=O)O; Phe(4-F) = N[C@@H](Cc1ccc(F)cc1)C(=O)O; Phe(4-Me) = Cc1ccc(C[C@H](N)C(=O)O)cc1; 1Nal = N[C@@H](Cc1cccc2ccccc12)C(=O)O; 2Nal = N[C@@H](Cc1ccc2ccccc2c1)C(=O)O; Bta = N[C@@H](Cc1csc2ccccc12)C(=O)O; d(hLeu) = CC(C)CC[C@@H](N)C(=O)O; 2Pal = N[C@@H](Cc1ccccn1)C(=O)O; β3hF = N[C@H](CC(=O)O)Cc1ccccc1; 2Thi = N[C@@H](Cc1cccs1)C(=O)O; Cha = N[C@@H](CC1CCCCC1)C(=O)O; dCha = N[C@H](CC1CCCCC1)C(=O)O; Aic = NC1(C(=O)O)Cc2ccccc2C1; Chg = N[C@H](C(=O)O)C1CCCCC1; X14 = NC(=O)N(Cc1ccccc1)N*; Orn = NCCC[C@H](N)C(=O)O; tBu = CC(C)(C)*

target: T1, human C5aR(CD88) (Homo sapiens, UniProt P21730); experiment: Determination of the IC50 value in an enzyme release assay (functional assay, antagonistic activity); type: cell-based; conditions: activity (group), antagonistic activity; IC50 group in enzyme release assay, RBL cells expressing human C5aR(CD88)
T1 construct: expressed in transfected cells; host or cells: rat basophilic leukemia cells (RBL)
T1 sequence (P21730 1-350): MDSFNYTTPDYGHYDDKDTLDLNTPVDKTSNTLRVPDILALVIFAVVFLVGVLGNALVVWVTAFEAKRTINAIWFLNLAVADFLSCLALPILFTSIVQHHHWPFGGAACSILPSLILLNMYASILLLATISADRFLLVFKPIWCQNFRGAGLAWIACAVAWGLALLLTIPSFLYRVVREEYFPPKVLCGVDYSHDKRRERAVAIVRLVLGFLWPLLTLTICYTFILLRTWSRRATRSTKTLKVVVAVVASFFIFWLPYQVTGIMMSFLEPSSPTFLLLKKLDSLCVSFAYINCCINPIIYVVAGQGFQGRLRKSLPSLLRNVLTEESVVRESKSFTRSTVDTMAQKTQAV

| Compound | IC50 |
| --- | --- |
| CC(=O)N[C@@H](Cc1ccccc1)C(=O)N[C@@H](CCCN)C(=O)N1CCC[C@H]1C(=O)N[C@@H](CC1CCCCC1)C(=O)N[C@@H](Cc1csc2ccccc12)C(=O)NN(Cc1ccccc1)C(N)=O [Compound 257, Ac-Phe-Orn-Pro-Cha-Bta-NH-NBn-CO—NH2] (Ac-F[Orn]P[Cha][Bta]-X14) | 0.05 to 0.2 µM |

same assay, conditions: antagonistic activity; IC50 group in enzyme release assay, RBL cells expressing human C5aR(CD88); read-out: activity (group)

| Compound | IC50 |
| --- | --- |
| CC(=O)N[C@@H](Cc1ccccc1)C(=O)N[C@@H](CCCN)C(=O)N1CCC[C@H]1C(=O)N[C@H](CC1CCCCC1)C(=O)N[C@@H](Cc1csc2ccccc12)C(=O)N[C@@H](Cc1cccc2ccccc12)C(N)=O [Compound 249, Ac-Phe-Orn-Pro-cha-Bta-1Ni—NH2] (Ac-F[Orn]P[dCha][Bta][1Nal]-NH2) | 0.05 to 0.2 µM |
| CC(=O)N[C@@H](Cc1ccccc1)C(=O)N[C@@H](CCCN)C(=O)N1CCC[C@H]1C(=O)N[C@H](CC1CCCCC1)C(=O)N[C@@H](Cc1csc2ccccc12)C(=O)N[C@H](CC(N)=O)Cc1ccccc1 [Compound 250, Ac-Phe-Orn-Pro-cha-Bta-Bhf-NH2] (Ac-F[Orn]P[dCha][Bta][β3hF]-NH2) | 0.02 to 0.05 µM |
| CC(=O)N[C@@H](Cc1ccccc1)C(=O)N[C@@H](CCCN)C(=O)N1CCC[C@H]1C(=O)N[C@H](CC1CCCCC1)C(=O)N[C@@H](Cc1csc2ccccc12)C(=O)N[C@@H](Cc1ccc(F)c(F)c1)C(N)=O [Compound 251, Ac-Phe-Orn-Pro-cha-Bta-Dff-NH2] (Ac-F[Orn]P[dCha][Bta][Phe(3,4-F2)]-NH2) | 0.02 to 0.05 µM |
| CC(=O)N[C@@H](Cc1ccccc1)C(=O)N[C@@H](CCCN)C(=O)N1CCC[C@H]1C(=O)N[C@H](CC1CCCCC1)C(=O)N[C@@H](Cc1csc2ccccc12)C(=O)N[C@@H](Cc1cccc(Cl)c1)C(N)=O [Compound 254, Ac-Phe-Orn-Pro-cha-Bta-Mcf-NH2] (Ac-F[Orn]P[dCha][Bta][Phe(3-Cl)]-NH2) | 0.05 to 0.2 µM |
| CC(=O)N[C@@H](Cc1ccccc1)C(=O)N[C@@H](CCCN)C(=O)N1CCC[C@H]1C(=O)N[C@H](CC1CCCCC1)C(=O)N[C@@H](Cc1csc2ccccc12)C(=O)N[C@@H](Cc1cccc(F)c1)C(N)=O [Compound 255, Ac-Phe-Orn-Pro-cha-Bta-Mff-NH2] (Ac-F[Orn]P[dCha][Bta][Phe(3-F)]-NH2) | 0.01 to 0.02 µM |
| CC(=O)N[C@@H](Cc1ccccc1)C(=O)N[C@@H](CCCN)C(=O)N1CCC[C@H]1C(=O)N[C@H](CC1CCCCC1)C(=O)N[C@@H](Cc1csc2ccccc12)C(=O)N[C@@H](Cc1ccccn1)C(N)=O [Compound 258, Ac-Phe-Orn-Pro-cha-Bta-Opa-NH2] (Ac-F[Orn]P[dCha][Bta][2Pal]-NH2) | 0.05 to 0.2 µM |
| CC(=O)N[C@@H](Cc1ccccc1)C(=O)N[C@@H](CCCN)C(=O)N1CCC[C@H]1C(=O)N[C@H](CC1CCCCC1)C(=O)N[C@@H](Cc1csc2ccccc12)C(=O)N[C@@H](Cc1ccc(Cl)cc1)C(N)=O [Compound 259, Ac-Phe-Orn-Pro-cha-Bta-Pcf-NH2] (Ac-F[Orn]P[dCha][Bta][Phe(4-Cl)]-NH2) | 0.02 to 0.05 µM |
| CC(=O)N[C@@H](Cc1ccccc1)C(=O)N[C@@H](CCCN)C(=O)N1CCC[C@H]1C(=O)N[C@H](CC1CCCCC1)C(=O)N[C@@H](Cc1csc2ccccc12)C(=O)N[C@@H](Cc1ccc(C)cc1)C(N)=O [Compound 260, Ac-Phe-Orn-Pro-cha-Bta-Pmf-NH2] (Ac-F[Orn]P[dCha][Bta][Phe(4-Me)]-NH2) | 0.02 to 0.05 µM |
| CC(=O)N[C@@H](Cc1ccccc1)C(=O)N[C@@H](CCCN)C(=O)N1CCC[C@H]1C(=O)N[C@H](CC1CCCCC1)C(=O)N[C@@H](Cc1csc2ccccc12)C(=O)N[C@@H](Cc1cccs1)C(N)=O [Compound 261, Ac-Phe-Orn-Pro-cha-Bta-Thi-NH2] (Ac-F[Orn]P[dCha][Bta][2Thi]-NH2) | 0.01 to 0.02 µM |
| CC(=O)N[C@@H](Cc1ccccc1)C(=O)N[C@@H](CCCN)C(=O)N1CCC[C@H]1C(=O)N[C@H](CC1CCCCC1)C(=O)N[C@@H](Cc1ccccc1C(F)(F)F)C(=O)N[C@@H](Cc1ccccc1)C(N)=O [Compound 262, Ac-Phe-Orn-Pro-cha-Otf-Phe-NH2] (Ac-F[Orn]P[dCha][Phe(2-CF3)]F-NH2) | 0.05 to 0.2 µM |
| CC(=O)N[C@@H](Cc1ccccc1)C(=O)N[C@@H](CCCN)C(=O)N1CCC[C@H]1C(=O)N[C@H](CSC(C)(C)C)C(=O)N[C@@H](Cc1csc2ccccc12)C(=O)N[C@@H](Cc1ccccc1)C(N)=O [Compound 263, Ac-Phe-Orn-Pro-ctb-Bta-Phe-NH2] (Ac-F[Orn]P[dC](tBu)[Bta]F-NH2) | 0.02 to 0.05 µM |
| CC(=O)N[C@@H](Cc1ccccc1)C(=O)N[C@@H](CCCN)C(=O)N1CCC[C@H]1C(=O)N[C@H](CSC(C)(C)C)C(=O)N[C@@H](Cc1ccc(Cl)c(Cl)c1)C(=O)N[C@@H](Cc1ccccc1)C(N)=O [Compound 264, Ac-Phe-Orn-Pro-ctb-Eaa-Phe-NH2] (Ac-F[Orn]P[dC](tBu)[Phe(3,4-Cl2)]F-NH2) | 0.02 to 0.05 µM |
| CC(=O)N[C@@H](Cc1ccccc1)C(=O)N[C@@H](CCCN)C(=O)N1CCC[C@H]1C(=O)N[C@H](CSC(C)(C)C)C(=O)N[C@@H](Cc1cccc(Cl)c1)C(=O)N[C@@H](Cc1ccccc1)C(N)=O [Compound 265, Ac-Phe-Orn-Pro-ctb-Mcf-Phe-NH2] (Ac-F[Orn]P[dC](tBu)[Phe(3-Cl)]F-NH2) | 0.05 to 0.2 µM |
| CC(=O)N[C@@H](Cc1ccccc1)C(=O)N[C@@H](CCCN)C(=O)N1CCC[C@H]1C(=O)N[C@H](CSC(C)(C)C)C(=O)N[C@@H](Cc1ccc(F)cc1)C(=O)N[C@@H](Cc1ccccc1)C(N)=O [Compound 266, Ac-Phe-Orn-Pro-ctb-Pff-Phe-NH2] (Ac-F[Orn]P[dC](tBu)[Phe(4-F)]F-NH2) | 0.02 to 0.05 µM |
| CC(=O)N[C@@H](Cc1ccccc1)C(=O)N[C@@H](CCCN)C(=O)N1CCC[C@H]1C(=O)N[C@H](CCC(C)C)C(=O)N[C@@H](Cc1cccc2ccccc12)C(=O)N[C@@H](Cc1ccccc1)C(N)=O [Compound 268, Ac-Phe-Orn-Pro-hle-1Ni-Phe-NH2] (Ac-F[Orn]P[d(hLeu)][1Nal]F-NH2) | 0.02 to 0.05 µM |
| CC(=O)N[C@@H](Cc1ccccc1)C(=O)N[C@@H](CCCN)C(=O)N1CCC[C@H]1C(=O)N[C@H](CCC(C)C)C(=O)NC(Cc1c[nH]c2cc(F)ccc12)C(=O)N[C@@H](Cc1ccccc1)C(N)=O (stereo partly drawn) [Compound 269, Ac-Phe-Orn-Pro-hle-6FW-Phe-NH2] (Ac-F[Orn]P[d(hLeu)][ξTrp(6-F)]F-NH2) | 0.05 to 0.2 µM |
| CC(=O)N[C@@H](Cc1ccccc1)C(=O)N[C@@H](CCCN)C(=O)N1CCC[C@H]1C(=O)N[C@H](CCC(C)C)C(=O)N[C@@H](Cc1csc2ccccc12)C(=O)N[C@@H](Cc1cccc2ccccc12)C(N)=O [Compound 270, Ac-Phe-Orn-Pro-hle-Bta-1Ni—NH2] (Ac-F[Orn]P[d(hLeu)][Bta][1Nal]-NH2) | 0.05 to 0.2 µM |
| CC(=O)N[C@@H](Cc1ccccc1)C(=O)N[C@@H](CCCN)C(=O)N1CCC[C@H]1C(=O)N[C@H](CCC(C)C)C(=O)N[C@@H](Cc1csc2ccccc12)C(=O)N[C@@H](Cc1ccc2ccccc2c1)C(N)=O [Compound 271, Ac-Phe-Orn-Pro-hle-Bta-2Ni—NH2] (Ac-F[Orn]P[d(hLeu)][Bta][2Nal]-NH2) | 0.05 to 0.2 µM |
| CC(=O)N[C@@H](Cc1ccccc1)C(=O)N[C@@H](CCCN)C(=O)N1CCC[C@H]1C(=O)N[C@H](CCC(C)C)C(=O)N[C@@H](Cc1csc2ccccc12)C(=O)N[C@@H](Cc1c(F)c(F)c(F)c(F)c1F)C(N)=O [Compound 272, Ac-Phe-Orn-Pro-hle-Bta-5Ff-NH2] (Ac-F[Orn]P[d(hLeu)][Bta][Phe(F5)]-NH2) | 0.05 to 0.2 µM |
| CC(=O)N[C@@H](Cc1ccccc1)C(=O)N[C@@H](CCCN)C(=O)N1CCC[C@H]1C(=O)N[C@H](CCC(C)C)C(=O)N[C@@H](Cc1csc2ccccc12)C(=O)NC1(C(N)=O)Cc2ccccc2C1 [Compound 273, Ac-Phe-Orn-Pro-hle-Bta-Aic-NH2] (Ac-F[Orn]P[d(hLeu)][Bta][Aic]-NH2) | 0.05 to 0.2 µM |
| CC(=O)N[C@@H](Cc1ccccc1)C(=O)N[C@@H](CCCN)C(=O)N1CCC[C@H]1C(=O)N[C@H](CCC(C)C)C(=O)N[C@@H](Cc1csc2ccccc12)C(=O)N[C@@H](CC1CCCCC1)C(N)=O [Compound 274, Ac-Phe-Orn-Pro-hle-Bta-Cha-NH2] (Ac-F[Orn]P[d(hLeu)][Bta][Cha]-NH2) | 0.05 to 0.2 µM |
| CC(=O)N[C@@H](Cc1ccccc1)C(=O)N[C@@H](CCCN)C(=O)N1CCC[C@H]1C(=O)N[C@H](CCC(C)C)C(=O)N[C@@H](Cc1csc2ccccc12)C(=O)N[C@H](C(N)=O)C1CCCCC1 [Compound 275, Ac-Phe-Orn-Pro-hle-Bta-Chg-NH2] (Ac-F[Orn]P[d(hLeu)][Bta][Chg]-NH2) | 0.05 to 0.2 µM |
| CC(=O)N[C@@H](Cc1ccccc1)C(=O)N[C@@H](CCCN)C(=O)N1CCC[C@H]1C(=O)N[C@H](CCC(C)C)C(=O)N[C@@H](Cc1csc2ccccc12)C(=O)N[C@@H](Cc1ccc(Cl)c(Cl)c1)C(N)=O [Compound 276, Ac-Phe-Orn-Pro-hle-Bta-Eaa-NH2] (Ac-F[Orn]P[d(hLeu)][Bta][Phe(3,4-Cl2)]-NH2) | 0.05 to 0.2 µM |
| CC(=O)N[C@@H](Cc1ccccc1)C(=O)N[C@@H](CCCN)C(=O)N1CCC[C@H]1C(=O)N[C@H](CCC(C)C)C(=O)N[C@@H](Cc1csc2ccccc12)C(=O)N[C@@H](Cc1ccc(Cl)cc1Cl)C(N)=O [Compound 277, Ac-Phe-Orn-Pro-hle-Bta-Egy-NH2] (Ac-F[Orn]P[d(hLeu)][Bta][Phe(2,4-Cl2)]-NH2) | 0.05 to 0.2 µM |
| CC(=O)N[C@@H](Cc1ccccc1)C(=O)N[C@@H](CCCN)C(=O)N1CCC[C@H]1C(=O)N[C@H](CCC(C)C)C(=O)N[C@@H](Cc1csc2ccccc12)C(=O)N[C@@H](Cc1ccc(Cl)cc1)C(N)=O [Compound 278, Ac-Phe-Orn-Pro-hle-Bta-Pcf-NH2] (Ac-F[Orn]P[d(hLeu)][Bta][Phe(4-Cl)]-NH2) | 0.05 to 0.2 µM |
